Laboratory results from PubChem BioAssay AID330 (DTP/NCI, 2004).
“And” between values parts separate entries of the source, which are not always exact repeats. Identical values can stand only once. Toxic doses and inconclusive results are not listed.

System: P388 leukemia ip, CD2F1 mice, survival T/C
Assay: NCI In Vivo Anticancer Drug Screen. Data for tumor model P388 Leukemia (intraperitoneal) in CD2F1 (CDF1) mice
Settings: endpoint: median survival time, higher = longer survival
Procedure, shortened: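 Mice carrying the transplanted tumor received test compound or vehicle. Survival was recorded in each group, and the value is the treated-group measurement divided by that of the vehicle-treated control group.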

[1] = dose: 200.0 mg/kg/injection, schedule: Q04DX003 (ip), vehicle: saline with Tween-80
[2] = dose: 50.0 mg/kg/injection, schedule: Q01DX005 (ip), vehicle: Klucel (hydroxypropylcellulose) (HPC)
[3] = dose: 200.0 mg/kg/injection, schedule: Q01DX005 (ip), vehicle: Klucel (hydroxypropylcellulose) (HPC)
[4] = dose: 25.0 mg/kg/injection, schedule: Q01DX009 (ip), vehicle: Klucel (hydroxypropylcellulose) (HPC)
[5] = dose: 50.0 mg/kg/injection, schedule: Q01DX009 (ip), vehicle: Klucel (hydroxypropylcellulose) (HPC)
[6] = dose: 100.0 mg/kg/injection, schedule: Q01DX009 (ip), vehicle: Klucel (hydroxypropylcellulose) (HPC)
[7] = dose: 50.0 mg/kg/injection, schedule: Q01DX005 (ip), vehicle: saline with Tween-80
[8] = dose: 100.0 mg/kg/injection, schedule: Q01DX005 (ip), vehicle: saline with Tween-80
[9] = dose: 200.0 mg/kg/injection, schedule: Q01DX005 (ip), vehicle: saline with Tween-80
[10] = dose: 60.0 mg/kg/injection, schedule: Q01DX005 (ip), vehicle: saline with Tween-80
[11] = dose: 120.0 mg/kg/injection, schedule: Q01DX005 (ip), vehicle: saline with Tween-80
[12] = dose: 240.0 mg/kg/injection, schedule: Q01DX005 (ip), vehicle: saline with Tween-80
[13] = dose: 100.0 mg/kg/injection, schedule: Q04DX002 (ip), vehicle: Klucel (hydroxypropylcellulose) (HPC)
[14] = dose: 200.0 mg/kg/injection, schedule: Q04DX002 (ip), vehicle: Klucel (hydroxypropylcellulose) (HPC)
[15] = dose: 400.0 mg/kg/injection, schedule: Q04DX002 (ip), vehicle: Klucel (hydroxypropylcellulose) (HPC)
[16] = dose: 100.0 mg/kg/injection, schedule: Q01DX005 (ip), vehicle: Klucel (hydroxypropylcellulose) (HPC)

CC1(C)CC(OP(=S)(OC2CC(C)(C)N(O)C(C)(C)C2)N2CC2)CC(C)(C)N1O
T/C (dose: 50.0 mg/kg/injection, schedule: Q01DX009 (ip), vehicle: saline + alcohol): 124 % of control
T/C (dose: 200.0 mg/kg/injection, schedule: Q01DX009 (ip), vehicle: saline + alcohol): 168 % of control

COC(=O)CCc1ccc(NP(=O)(N2CC2)N2CC2)cc1
T/C (dose: 12.5 mg/kg/injection, schedule: Q04DX003 (ip), vehicle: saline with Tween-80): 100 % of control
T/C (dose: 25.0 mg/kg/injection, schedule: Q04DX003 (ip), vehicle: saline with Tween-80): 115 % of control
T/C (dose: 100.0 mg/kg/injection, schedule: Q01DX009 (ip), vehicle: saline with Tween-80): 150 % of control
T/C (dose: 132.0 mg/kg/injection, schedule: Q04DX003 (ip), vehicle: saline with Tween-80): 150 % of control
T/C (dose: 200.0 mg/kg/injection, schedule: Q01DX009 (ip), vehicle: saline with Tween-80): 90 % of control
T/C [1]: 156 % of control
T/C (dose: 300.0 mg/kg/injection, schedule: Q04DX003 (ip), vehicle: saline with Tween-80): 90 % of control

O=C1C2=C(Nc3cc(Cl)ccc3N2)OC1c1ccc(Cl)c(Cl)c1 (stereo not drawn)
T/C [2]: 92 % of control
T/C [3]: 88 % of control

COC1=CC(=Nc2ccc(N(CCCl)CCCl)cc2)C=CC1=O
T/C [4]: 159 % of control
T/C [5]: 151 % of control and 154 % of control
T/C [6]: 159 % of control and 174 % of control

CCCCCCCCCc1ccc(OC(=O)CCC)cc1
T/C [6]: 102 % of control
T/C (dose: 200.0 mg/kg/injection, schedule: Q01DX009 (ip), vehicle: Klucel (hydroxypropylcellulose) (HPC)): 97 % of control
T/C (dose: 400.0 mg/kg/injection, schedule: Q01DX009 (ip), vehicle: Klucel (hydroxypropylcellulose) (HPC)): 99 % of control

Nc1nc(N)c2cnnn2n1
T/C [7]: 95 % of control
T/C [8]: 102 % of control
T/C [9]: 110 % of control

CCOC(=O)Nc1cc(OC)cc2ccc(C)nc12
T/C (dose: 12.5 mg/kg/injection, schedule: Q01DX009 (ip), vehicle: other): 88 % of control
T/C (dose: 50.0 mg/kg/injection, schedule: Q01DX009 (ip), vehicle: other): 98 % of control
T/C (dose: 100.0 mg/kg/injection, schedule: Q01DX009 (ip), vehicle: other): 99 % of control
T/C (dose: 200.0 mg/kg/injection, schedule: Q01DX009 (ip), vehicle: other): 98 % of control

CC(=O)C[n+]1ccccc1C
T/C [7]: 93 % of control
T/C [8]: 107 % of control

C[C@H]1CC(=O)SC1=O
T/C (dose: 25.0 mg/kg/injection, schedule: Q04DX002 (ip), vehicle: saline): 100 % of control
T/C (dose: 50.0 mg/kg/injection, schedule: Q04DX002 (ip), vehicle: saline): 93 % of control

O=C(Cc1ccc(Cl)cc1)NCCc1ccccc1
T/C [7]: 102 % of control
T/C [8]: 102 % of control
T/C [9]: 99 % of control

CCC(=O)NC
T/C (dose: 25.0 mg/kg/injection, schedule: Q01DX009 (ip), vehicle: saline): 97 % of control
T/C (dose: 50.0 mg/kg/injection, schedule: Q01DX009 (ip), vehicle: saline): 97 % of control
T/C (dose: 100.0 mg/kg/injection, schedule: Q01DX009 (ip), vehicle: saline): 106 % of control
T/C (dose: 200.0 mg/kg/injection, schedule: Q01DX009 (ip), vehicle: saline): 107 % of control

CC12CCCN(CCCl)C1CCC1C2CCC2(C)C1CCCN2CCCl (stereo not drawn)
T/C (dose: 0.78 mg/kg/injection, schedule: Q01DX001 (ip), vehicle: saline with Tween-80): 108 % of control
T/C (dose: 1.56 mg/kg/injection, schedule: Q01DX001 (ip), vehicle: saline with Tween-80): 112 % of control and 118 % of control
T/C (dose: 1.56 mg/kg/injection, schedule: Q01DX001 (ip), vehicle: saline): 102 % of control
T/C (dose: 3.13 mg/kg/injection, schedule: Q01DX001 (ip), vehicle: saline with Tween-80): 117 % of control

CN1C(c2ccccc2)=C(C#N)C(=O)CC(c2ccc(Cl)cc2)N1C (stereo not drawn)
T/C [10]: 102 % of control
T/C [11]: 91 % of control
T/C [12]: 101 % of control

COc1ccc(-c2cn3c([nH]c(=O)c4cc(Br)ccc43)c2C#N)cc1
T/C [10]: 91 % of control
T/C [11]: 93 % of control
T/C [12]: 87 % of control

O=C(O)C(Oc1ccc(Cl)cc1Cl)C(Oc1ccc(Cl)cc1Cl)C(=O)O (stereo not drawn)
T/C (dose: 60.0 mg/kg/injection, schedule: Q01DX005 (ip), vehicle: Klucel (hydroxypropylcellulose) (HPC)): 101 % of control
T/C (dose: 120.0 mg/kg/injection, schedule: Q01DX005 (ip), vehicle: Klucel (hydroxypropylcellulose) (HPC)): 101 % of control
T/C (dose: 240.0 mg/kg/injection, schedule: Q01DX005 (ip), vehicle: Klucel (hydroxypropylcellulose) (HPC)): 100 % of control

Cc1cccc(C)c1NC(=S)N1CCC(CCCC2CCN(C(=S)Nc3c(C)cccc3C)CC2)CC1
T/C (dose: 100.0 mg/kg/injection, schedule: Q04DX003 (ip), vehicle: saline with Tween-80): 86 % of control
T/C [1]: 86 % of control

Cc1cccc(N=Nc2c(-c3ccccc3)nn(C(N)=S)c2C)c1C
T/C [13]: 94 % of control
T/C [14]: 105 % of control
T/C [15]: 94 % of control

COc1ccc2[nH]c3c(C)c4cc[n+](CCCCCCCC[n+]5ccc6c(C)c7[nH]c8ccc(OC)cc8c7c(C)c6c5)cc4c(C)c3c2c1
T/C (dose: 0.78 mg/kg/injection, schedule: Q04DX003 (ip), vehicle: other): 117 % of control
T/C (dose: 25.0 mg/kg/injection, schedule: Q04DX003 (ip), vehicle: other): 122 % of control
T/C (dose: 50.0 mg/kg/injection, schedule: Q04DX003 (ip), vehicle: other): 119 % of control

CCC(=O)Nc1nnc(SCCCCCCSc2nnc(NC(=O)CC)s2)s1
T/C [2]: 90 % of control
T/C [16]: 88 % of control
T/C [3]: 91 % of control

COc1cccc2c1C(=O)c1c(O)c3c(c(O)c1C2=O)C[C@@](O)(C(C)=O)CC3OC1CC(NC(=O)C(C)N)C(O)C(C)O1 (stereo partly drawn)
T/C (dose: 6.25 mg/kg/injection, schedule: Q04DX003 (ip), vehicle: saline): 108 % of control
T/C (dose: 12.5 mg/kg/injection, schedule: Q04DX003 (ip), vehicle: saline): 115 % of control
T/C (dose: 50.0 mg/kg/injection, schedule: Q04DX003 (ip), vehicle: saline): 150 % of control

CC1(C)OCC(C2OC3OC(C)(C)OC3/C2=N/NC(=O)c2cc3cc(OCc4ccccc4)ccc3[nH]2)O1 (stereo not drawn)
T/C (dose: 6.25 mg/kg/injection, schedule: Q01DX005 (ip), vehicle: saline): 93 % of control
T/C (dose: 12.5 mg/kg/injection, schedule: Q01DX005 (ip), vehicle: saline): 93 % of control
T/C (dose: 25.0 mg/kg/injection, schedule: Q01DX005 (ip), vehicle: saline): 88 % of control
T/C (dose: 200.0 mg/kg/injection, schedule: Q01DX005 (ip), vehicle: saline): 94 % of control

COc1ccc2c(c1)nc(-c1ccccn1)n2CCc1ccccn1
T/C (dose: 50.0 mg/kg/injection, schedule: Q04DX002 (ip), vehicle: Klucel (hydroxypropylcellulose) (HPC)): 113 % of control
T/C [13]: 101 % of control
T/C [14]: 104 % of control
T/C [15]: 101 % of control

CC1=NN(C(=O)c2ccc(Cl)cc2)C(=O)C1N=Nc1ccc(S(=O)(=O)Nc2nc(C)cc(C)n2)cc1 (stereo not drawn)
T/C (dose: 100.0 mg/kg/injection, schedule: Q01DX001 (ip), vehicle: saline with Tween-80): 92 % of control
T/C (dose: 200.0 mg/kg/injection, schedule: Q01DX001 (ip), vehicle: saline with Tween-80): 86 % of control
T/C (dose: 400.0 mg/kg/injection, schedule: Q01DX001 (ip), vehicle: saline with Tween-80): 89 % of control

CC(C)COC1CN=NN1/C=C1\CCOC1=O (stereo not drawn)
T/C [10]: 102 % of control
T/C [11]: 107 % of control
T/C [12]: 100 % of control

COc1ccc(C(CC(=O)c2ccccc2)[Se]c2ccccc2)cc1 (stereo not drawn)
T/C [4]: 105 % of control
T/C [5]: 106 % of control
T/C [6]: 105 % of control

C(=Nc1ccc2ccc3cccc4ccc1c2c34)c1ccncc1
T/C (dose: 25.0 mg/kg/injection, schedule: Q01DX005 (ip), vehicle: Klucel (hydroxypropylcellulose) (HPC)): 102 % of control
T/C [2]: 100 % of control
T/C [16]: 100 % of control
T/C [3]: 92 % of control
